The source of these data is patent US11608332B2, “FGFR4 inhibitor and preparation method and use thereof” (Jiangsu Hansoh Pharmaceutical Group Co., Ltd., priority 2016, dated 2023).

Broadly, the IC50 is the concentration that inhibits the measured activity by half. As a reminder, the MRT is the average time that molecules of a dose stay in the body.

Molecules are shown by their SMILES. Some results are limits rather than exact numbers.

Data set [1] addresses FGFR1 kinase (Homo sapiens (Human), UniProt P11362). The data set can be described thus: Enzymologic experiment of FGFR1 (TR-FRET). It is filed as biochemical. The following applies: TR-FRET kinase activity. On the procedure:
2. Enzymologic Experiment of FGFR1
In this experiment, the inhibitory effect of the compounds on FGFR1 kinase activity was tested by a fluorescence resonance energy transfer (TR-FRET) method, and the half maximal inhibitory concentration (IC50) of the compounds on the FGFR1 kinase activity was determined.
1) 1˜5 μL of FGFR1 enzymatic solution was added to a 384-well plate, and the final concentration of the enzyme was 0.1˜5 nM.
2) 1˜5 μL of diluted solution in gradient of the compound was added.
3) 1˜5 μL of a substrate mixture containing substrate polypeptide with a final concentration of 5˜50 nM and ATP with a final concentration of 10˜200 μM was added.
4) The mixture was incubated for 0.5-3 hours at room temperature.
5) 10 μL of EDTA and a test solution comprising labeled antibody were added, and the plate was incubated for 1 hour at room temperature.
6) The fluorescence signal values of each plate were determined by a microplate reader at 665 nm.
7) The inhibition rates were calculated according to the fluorescence signal values.
The IC50 of the compound was obtained by curve fitting according to the inhibition rates at different concentrations, and the enzymatic activity of the specific example compounds is shown in Table 1.
On the technique in general: Time-resolved FRET reads energy transfer from a long-lived donor to a nearby acceptor.

Data set [2] concerns Hep 3B cells. The data set can be described thus: Inhibition of Hep 3B cell proliferation (CellTiter-Glo). It is filed as cell-based. The following applies: Homo sapiens, Hep3B, 72 hours. As for the experimental part: 3. Experiment on the Inhibition of Hep 3B Cell Proliferation
In this experiment, the inhibitory effect of the compounds on Hep 3B cell proliferation was tested by a CellTiter-Glo method, and the half maximal inhibitory concentration (IC50) of the compounds on the activity of cell proliferation was determined.
1) A 96-well cell culture plate was seeded with 50˜100 μL of Hep 3B cell suspension at a density of 1-5×10^4 cells/ml. The culture plate was incubated in an incubator for 16-24 hours (37° C., 5% CO2).
(§1) 2) Different concentrations of the test compound in a gradient dilution were added to the cells in the culture plate. The culture plate was incubated in an incubator for 72 hours (37° C., 5% CO2).
3) 50-100 μL of CellTiter-Glo reagent were added to each well. Then, the culture plate was shaken or left to stand for 5˜30 minutes at room temperature.
(§2) 4) The chemiluminescence signal values of each plate were determined by a microplate reader.
(§3) 5) The inhibition rates were calculated according to the chemiluminescence signal values.
6) The IC50 of the compound was obtained by curve fitting according to the inhibition rates at different concentrations, and the cell activity of the specific example compounds is shown in Table 2.
On the technique in general: In ATP-based viability assays light output follows the ATP content of the culture.

Data set [3] deals with HuH-7 cells. The data set can be described thus: Inhibition of HuH-7 cell proliferation (CellTiter-Glo). The following applies: Homo sapiens, 72 hours. It is filed as cell-based. On the procedure: 4. Experiment on the Inhibition of HuH-7 Cell Proliferation
In this experiment, the inhibitory effect of the compounds on HuH-7 cell proliferation was tested by a CellTiter-Glo method, and the half maximal inhibitory concentration (IC50) of the compounds on the activity of cell proliferation was determined.
1) A 96-well cell culture plate was seeded with 50˜100 μL of HuH-7 cell suspension at a density of 1-5×10^4 cells/ml. The culture plate was incubated in an incubator for 16˜24 hours (37° C., 5% CO2).
as §1
(§4) 3) 50˜100 μL of CellTiter-Glo reagent were added to each well. Then, the culture plate was shaken or left to stand for 5˜30 minutes at room temperature.
as §2, §3
6) The IC50 of the compound was obtained by curve fitting according to the inhibition rates at different concentrations, and the cell activity of the specific Example compounds is shown in Table 2.

Data set [4] relates to SK-HEP-1 cells. The data set can be described thus: Inhibition of SK-HEP-1 cell proliferation (CellTiter-Glo). It is filed as cell-based. The following applies: Homo sapiens, SK-HEP1, 72 hours. As for the experimental part: 5. Experiment on the Inhibition of SK-HEP-1 Cell Proliferation
In this experiment, the inhibitory effect of the compounds on SK-HEP-1 cell proliferation was tested by a CellTiter-Glo method, and the half maximal inhibitory concentration (IC50) of the compounds on the activity of cell proliferation was determined.
1) A 96-well cell culture plate was seeded with 50˜100 μL of SK-HEP-1 cell suspension at a density of 1-5×10^4 cells/ml. The culture plate was incubated in an incubator for 16˜24 hours (37° C., 5% CO2).
as §1, §4, §2, §3
The IC50 of the compound was obtained by curve fitting according to the inhibition rates at different concentrations, and the cell activity of the specific Example compounds is shown in Table 2.

Data set [5] is described as follows: Pharmacokinetic (PK) analysis in rats. It is filed as in vivo, Sprague Dawley (SD) rats. The following applies: SD rats, single intragastric administration, 5 mg/kg, plasma; for AUC(0-t) / AUC(0-inf) / half-life / MRT / Cmax: Sprague-Dawley, rat, po; for AUC(0-t): read-out: Area Under Curve AUC0-t; for AUC(0-inf): read-out: Area Under Curve AUC0-∞; for half-life: read-out: Half-Time t1/2 (converted); for MRT: read-out: Mean Residence Time MRT; for Cmax: read-out: Plasma Concentration Cmax. On the procedure: 6. Pharmacokinetic (PK) Analysis in Rats
Mode of administration: a single intragastric administration.
Formulation: 0.5% CMC and 1% Tween 80, ultrasonic dissolution.
Sampling points: 0.5, 1, 2, 4, 6, 8 and 24 hours after administration.
1. 1.0 ml of intravenous blood was collected and placed in a K2EDTA test tube.
The blood was centrifuged at room temperature at the speed of 1000˜3000×g for 5˜20 minutes to isolate the plasma, which was then stored at −80° C. 2. 160 μL of acetonitrile were added to 40 μL of plasma sample for precipitation, and then the mixture was centrifuged at the speed of 500˜2000×g for 5˜20 minutes. 3. 100 μL of treated solution were taken, and the concentration of the test compound was analyzed by LC/MS/MS. The LC/MS/MS analytical instrument was AB Sciex API 4000.
Liquid Chromatography Analysis:
Condition of Liquid chromatography: Shimadzu LC-20AD pump
Chromatographic column: phenomenex Gemiu 5 um C18 50×4.6 mm
Mobile phase: Solution A is 0.1% aqueous formic acid solution, and solution B is acetonitrile
Elution time: 0-3.5 minutes, the eluent was as follows:
Mass spectrometry analysis:
Mass spectrometer setup conditions: positive ion electrospray ionization (ESI) mode.

Chain of FGFR1 kinase (P11362 22-822): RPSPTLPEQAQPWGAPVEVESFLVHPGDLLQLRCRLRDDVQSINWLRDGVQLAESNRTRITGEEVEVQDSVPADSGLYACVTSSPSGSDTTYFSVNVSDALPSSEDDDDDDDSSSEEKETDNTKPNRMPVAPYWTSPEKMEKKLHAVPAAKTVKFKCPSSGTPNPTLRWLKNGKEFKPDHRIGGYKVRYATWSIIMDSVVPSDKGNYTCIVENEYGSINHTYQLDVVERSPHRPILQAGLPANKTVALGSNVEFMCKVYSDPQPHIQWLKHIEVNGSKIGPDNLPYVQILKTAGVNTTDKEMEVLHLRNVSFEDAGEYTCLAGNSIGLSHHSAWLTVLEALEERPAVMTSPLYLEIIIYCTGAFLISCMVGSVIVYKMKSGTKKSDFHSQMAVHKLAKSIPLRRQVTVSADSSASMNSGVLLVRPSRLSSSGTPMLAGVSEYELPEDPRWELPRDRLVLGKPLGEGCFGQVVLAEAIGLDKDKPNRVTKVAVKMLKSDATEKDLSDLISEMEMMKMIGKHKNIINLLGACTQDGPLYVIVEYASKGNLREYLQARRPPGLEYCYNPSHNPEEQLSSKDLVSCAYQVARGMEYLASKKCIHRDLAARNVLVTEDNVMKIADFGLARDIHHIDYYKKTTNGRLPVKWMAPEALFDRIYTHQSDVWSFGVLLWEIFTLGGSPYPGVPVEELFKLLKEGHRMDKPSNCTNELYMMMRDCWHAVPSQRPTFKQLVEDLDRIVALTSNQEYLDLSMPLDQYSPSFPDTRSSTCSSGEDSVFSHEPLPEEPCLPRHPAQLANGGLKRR

In the case of `COCCNc1cc(NC(=O)N2CCCc3cc(CN(C)C(=O)C4COC4)c(C=O)nc32)ncc1C#N` [Example 3, N-(5-Cyano-4-((2-methoxyethyl)amino)pyridin-2-yl)-7-formyl-6-((N-methyloxetane-3-carboxamido)methyl)-3,4-dihydro-1,8-naphthyridin-1(2H)-carboxamide], the IC50 in data set [1] was above 10000 nM. In data set [2], this molecule had an IC50 of 5.4 nM. In addition, the IC50 in data set [3] was 38.8 nM. The half-maximal inhibitory concentration (IC50) in data set [4] was above 10000 nM. For the same molecule, in data set [5], the Peak Time tmax is 2 h, the AUC(0-t) turned out to be 6350 ng·h/mL, the AUC(0-inf) is 6660 ng·h/mL and the half-life was 1.6 h. In data set [5], the MRT was determined as 3.3 h and the Cmax was 2230 ng/mL.

In turn, `COCCNc1cc(NC(=O)N2CCCc3cc(CN(C)C(=O)C4CCOCC4)c(C=O)nc32)ncc1C#N` [Example 98, N-(5-Cyano-4-((2-methoxyethyl)amino)pyridin-2-yl)-7-formyl-6-((N-methyltetrahydro-2H-pyran-4-carboxamido)methyl)-3,4-dihydro-1,8-naphthyridin-1(2H)-carboxamide] displayed an IC50 in data set [1] above 10000 nM. The IC50 in data set [2] turned out to be 2.7 nM. The same molecule displayed a half-inhibitory concentration (IC50) in data set [3] of 11.2 nM. In addition, the IC50 in data set [4] is above 10000 nM. Further, in data set [5], the Peak Time tmax came to 2 h, the AUC(0-t) was found to be 6700 ng·h/mL, the AUC(0-inf) was determined as 6840 ng·h/mL and the half-life is 0.9 h. Also, in data set [5], the MRT was 3.1 h and the Cmax was determined as 2690 ng/mL.

Regarding `CO[C@@H]1CCN(Cc2cc3c(nc2C=O)N(C(=O)Nc2cc(N[C@@H]4CCOC4)c(C#N)cn2)CCC3)C1=O` [Example 87, N-(5-Cyano-4-(((R)-tetrahydrofuran-3-yl)amino)pyridin-2-yl)-7-formyl-6-(((R)-3-methoxy-2-carbonylpyrrolidin-1-yl)methyl)-3,4-dihydro-1,8-naphthyridin-1(2H)-carboxamide], the IC50 in data set [1] was above 10000 nM. In data set [2], this molecule came in with an IC50 of 2.2 nM. In data set [3], this molecule had an IC50 of 5.4 nM. This molecule also showed a half-inhibitory concentration (IC50) in data set [4] above 10000 nM. In addition, in data set [5], the Peak Time tmax was determined as 2 h, the AUC(0-t) was 12400 ng·h/mL, the AUC(0-inf) turned out to be 14700 ng·h/mL and the half-life is 1.2 h. In data set [5], the MRT was determined as 2.6 h and the Cmax is 3360 ng/mL.

`COC[C@@H](C)Nc1cc(NC(=O)N2CCCc3cc(CN(C)C(=O)[C@H]4CCCO4)c(C=O)nc32)ncc1C#N` [Example 93, N-(5-Cyano-4-(((R)-1-methoxypropan-2-yl)amino)pyridin-2-yl)-7-formyl-6-(((R)—N-methyltetrahydrofuran-2-carboxamido)methyl)-3,4-dihydro-1,8-naphthyridin-1(2H)-carboxamide] returned an IC50 in data set [1] above 10000 nM. It took 3.7 nM to reach half-maximal inhibition in data set [2] (IC50). This molecule gave an IC50 in data set [3] of 5 nM. In data set [4], this molecule showed an IC50 above 10000 nM. For the same molecule, in data set [5], the Peak Time tmax turned out to be 2 h, the AUC(0-t) worked out at 9420 ng·h/mL, the AUC(0-inf) is 9480 ng·h/mL and the half-life is 0.9 h. For the same molecule, in data set [5], the MRT turned out to be 2.5 h and the Cmax was found to be 2860 ng/mL.

`COCC(=O)N(C)Cc1cc2c(nc1C=O)N(C(=O)Nc1cc(N3CC[C@H](OC)C3)c(C#N)cn1)CCC2` [Example 106, (S)—N-(5-Cyano-4-(3-methoxypyrrolidin-1-yl)pyridin-2-yl)-7-formyl-6-((2-methoxy-N-methylacetamido)methyl)-3,4-dihydro-1,8-naphthyridin-1(2H)-carboxamide]: the half-maximal inhibitory concentration (IC50) in data set [1] was above 10000 nM; in data set [2], 5.8 nM; in data set [3] it was 21.1 nM; in data set [4] it was above 10000 nM.

Regarding `COCCNc1cc(NC(=O)N2CCCc3cc(CN(C)C(=O)[C@@H]4CCOC4)c(C=O)nc32)ncc1C#N` [Example 7, (R)—N-(5-Cyano-4-((2-methoxyethyl)amino)pyridin-2-yl)-7-formyl-6-((N-methyltetrahydrofuran-3-carboxamido)methyl)-3,4-dihydro-1,8-naphthyridin-1(2H)-carb oxamide], the IC50 was above 10000 nM in data set [1], 4.7 nM in data set [2], 10.6 nM in data set [3] and above 10000 nM in data set [4].

In data set [1], `COC[C@@H](C)Nc1cc(NC(=O)N2CCCc3cc(CN4CC[C@H](OC)C4=O)c(C=O)nc32)ncc1C#N` [Example 89, N-(5-Cyano-4-(((R)-1-methoxypropan-2-yl)amino)pyridin-2-yl)-7-formyl-6-(((S)-3-methoxy-2-carbonylpyrrolidin-1-yl)methyl)-3,4-dihydro-1,8-naphthyridin-1(2H)-carboxamide] gave an IC50 above 10000 nM. Further, in data set [2], half-maximal inhibition (IC50) was put at 1.9 nM. The molecule further returned an IC50 in data set [3] of 2.3 nM. Further, the IC50 in data set [4] was above 10000 nM. In data set [5], the Peak Time tmax was determined as 2 h, the AUC(0-t) was 3100 ng·h/mL, the AUC(0-inf) came out at 3130 ng·h/mL and the half-life was 1 h. For the same molecule, in data set [5], the MRT came to 2.5 h and the Cmax worked out at 1990 ng/mL.

On to `COCCNc1cc(NC(=O)N2CCCc3cc(CN(C)C(=O)[C@H]4CCOC4)c(C=O)nc32)ncc1C#N` [Example 6, (S)—N-(5-Cyano-4-((2-methoxyethyl)amino)pyridin-2-yl)-7-formyl-6-((N-methyltetrahydrofuran-3-carboxamido)methyl)-3,4-dihydro-1,8-naphthyridin-1(2H)-carb oxamide], for which the IC50 in data set [1] was above 10000 nM; in data set [2], 2.7 nM; in data set [3], 9.7 nM; in data set [4], above 10000 nM.
